Assay results as given in patent EP0427799B1, “METHOD AND COMPOUNDS FOR AICA RIBOSIDE DELIVERY AND FOR LOWERING BLOOD GLUCOSE” (GENSIA, INC., priority 1989, dated 1990).
Each block holds one molecule with its values, some of them ahead of it.

Legend:
ischemic heart tissue = experiment: Adenosine, AICA riboside and ZMP levels in ischemic heart tissue; assay type: in vivo, rats; details: for adenosine concentrations during net ATP breakdown: rat heart ischemia model
Method: Prodrug compounds of the present invention and AICA riboside were tested for their activity in enhancing the production of adenosine and increasing production of AICA riboside from ZMP in ischemic heart tissue in rats.
Samples of heart tissue after ischemia were analyzed for nucleoside and nucleotide levels. Samples were measured for adenosine, AICA riboside and ZMP concentrations by HPLC.

HTL-induced seizures = experiment: Inhibition of HTL-induced seizures; assay type: in vivo; details: mice
Method: Compounds were tested for their activities in inhibiting HTL-induced seizures in rats.
Animals used were male Swiss Webster mice weighing 21-30 grams (Charles River Breeding Labs, Wilmington, MA). All animals were adapted to the laboratory for at least 5 days prior to use.
All solutions to be injected were prepared as a single injection cocktail at a concentration such that 1 ml per 100 g of body weight yielded the desired dose. The solutions were compounded as follows: Homocysteine Thiolactone - HCl (HTL-HCl) (Sigma Chemical Company, St. Louis, MO) was dissolved in distilled water and the pH adjusted to 6.7 with NaOH. Pentylenetetrazol (PTZ) was dissolved in 0.9% saline. Prodrug compounds or AICA riboside (Sigma) when used alone was dissolved in distilled water. All solutions containing Mioflazine (Janssen Pharmaceuticals) were prepared at a final DMSO concentration of 10-15% as were the Dipyridamole (Sigma) solutions. N-ethylcarboxamide adenosine, NECA (Sigma) and Flunitrazepam (Hoffman La Roche) injections were prepared in a final ethanol concentration of 0.2%. In all cases carrier control solutions of carrier were injected that were matched for both tonicity and solvents to the test solutions. All test and control solutions were injected via a bolus, I.P., using a 27 gauge needle. HTL and PTZ were injected subcutaneously in the upper back of the animal. […]

PTZ induced seizures = experiment: Inhibition of PTZ-induced seizures; assay type: in vivo; details: mice
Method: All solutions to be injected were prepared as a single injection cocktail at a concentration such that 1 ml per 100 g of body weight yielded the desired dose. The solutions were compounded as follows: Homocysteine Thiolactone - HCl (HTL-HCl) (Sigma Chemical Company, St. Louis, MO) was dissolved in distilled water and the pH adjusted to 6.7 with NaOH. Pentylenetetrazol (PTZ) was dissolved in 0.9% saline. Prodrug compounds or AICA riboside (Sigma) when used alone was dissolved in distilled water. All solutions containing Mioflazine (Janssen Pharmaceuticals) were prepared at a final DMSO concentration of 10-15% as were the Dipyridamole (Sigma) solutions. N-ethylcarboxamide adenosine, NECA (Sigma) and Flunitrazepam (Hoffman La Roche) injections were prepared in a final ethanol concentration of 0.2%. In all cases carrier control solutions of carrier were injected that were matched for both tonicity and solvents to the test solutions. All test and control solutions were injected via a bolus, I.P., using a 27 gauge needle. HTL and PTZ were injected subcutaneously in the upper back of the animal.
Animals were preinjected with either control solution containing only carrier or test solution containing candidate compound (prodrug or AICA riboside) and carrier in groups of 6-8 per test solution or control. […]

cell culture = experiment: Adenosine concentrations in cell culture during net ATP breakdown; assay type: cell-based
Text: (§1) We have expanded this work on AICA riboside and S-AICA riboside homocysteine to examine other known adenosine kinase inhibitors as adenosine releasing agents. The flux (substrate made into product per unit of time), through adenosine kinase under physiological conditions is low; substrate metabolism is low partly due to low substrate availability. However, during net ATP catabolism, substrate availability (i.e. adenosine concentration) dramatically increases. […] (See Figure 15).

[1] = Blood pressure and heart rate in rats; assay type: in vivo
Text: as §1

in vivo = experiment: in vivo; set-up: species or system dogs; details: dog; for AUC / Cmax / Tmax: po
Method: The bioavailability of AICA riboside after oral administration of either AICA riboside or one of the AICA riboside prodrugs of the present invention was evaluated in dogs. Plasma concentrations of AICA riboside and intact prodrug were measured using HPLC. (See Dixon, R., et al., Res. Commun. Chem. Path. Pharm. 65:405-408 (1989)). Bioavailability of AICA riboside was evaluated in terms of the time required to reach maximum plasma concentration (Tmax), the maximum concentration achieved (Cmax) and the area under the plasma concentration-time curve (AUC) from time zero to the last measurable plasma concentration. Absolute bioavailability (F%) was calculated by dividing the AUC for AICA riboside following oral administration of the prodrug (or AICA riboside itself) by the AUC following intravenous administration of an equivalent amount of AICA riboside (100% bioavailability).

plasma glucose = experiment: Plasma glucose after adenosine and adenosine receptor agonists I.P.; assay type: in vivo; details: administered I.P. in either rats or mice
Text: This leads to investigation of the mechanism of AICA riboside induced hypoglycemia. […] This adenosine induced hyperglycemia is reversed by adenosine receptor antagonists (theophylline and sulphophenyltheophylline). Additionally, the AICA riboside-induced hypoglycemia is not blocked by theophylline. It is therefore concluded that the AICA riboside effect on plasma glucose is not mediated by adenosine. […] (See Figure 13).

[2] = Enhanced oral bioavailability: tissue ZMP levels after gavage; assay type: in vivo, Sprague-Dawley rats
Method: AICA riboside was administered to Sprague-Dawley rats at a dose of 250 mg/kg or 500 mg/kg, prodrug compounds of the present invention were administered at an equal molar dose.
At 15, 30, 60 and 120 minutes after gavage, the animals were sacrificed. The tissues were obtained and frozen immediately for nucleoside and nucleotide analysis. The tissue samples obtained were liver, heart, brain and whole blood. After initial freezing in liquid nitrogen, the tissue samples were extracted with trichloroacetic acid and neutralized with alamine freon. The tissue samples were evaluated by HPLC on a Whatman Partsil-10 (SAX) column for nucleosides and bases as described in Example 6. […] Tests were run with 8 rats.
Figures 5(a) and (b) show ZMP concentrations in rat liver at doses of a molar equivalent of 250 mg/kg and 500 mg/kg AICA riboside.

blood glucose = details: several animal species, including man; cited from earlier work
adenosine kinase = adenosine kinase (Homo sapiens, UniProt P55263); experiment: Inhibition of adenosine kinase; assay type: biochemical
FDPase [3] = biological target: T1, FDPase (Rattus norvegicus, UniProt P19112); experiment: Inhibition of liver FDPase by ZMP (IC50); assay type: biochemical; details: Rat liver homogenate supernatant
T1 construct: Liver samples (from the indicated species) were homogenized; from tissue; host or cells: rat liver homogenate, 45,000 x g supernatant passed over Sephadex G25
Method: (§2) Liver samples (from the indicated species) were homogenized in 20 mM potassium phosphate buffer (pH 7.4) with 100 µM EDTA and 100 µM dithiothreitol. The liver homogenates were centrifuged at 45,000 x/g. The supernatants were passed over a sephadex G25 column and assayed for FDPase activity by the method of Marcus et al (Methods in Enzymology 90: 352-356 (1982)) in the presence of ZMP over a range of concentration and in the absence of ZMP. The IC50 value was defined as the concentration of ZMP, which inhibited 50 percent of the baseline FDPase activity under the assay conditions.

FDPase [4] = biological target: T2, FDPase (Mus musculus, UniProt Q9QXD6); experiment: Inhibition of liver FDPase by ZMP (IC50); assay type: biochemical; details: Mouse liver homogenate supernatant
T2 construct: Liver samples (from the indicated species) were homogenized; from tissue; host or cells: mouse liver homogenate, 45,000 x g supernatant passed over Sephadex G25
Method: as §2

FDPase [5] = biological target: T3, FDPase (Oryctolagus cuniculus, UniProt P00637); experiment: Inhibition of liver FDPase by ZMP (IC50); assay type: biochemical; details: Rabbit liver homogenate supernatant
T3 construct: Liver samples (from the indicated species) were homogenized; from tissue; host or cells: rabbit liver homogenate, 45,000 x g supernatant passed over Sephadex G25
Method: as §2

FDPase [6] = experiment: Inhibition of liver FDPase by ZMP (IC50); assay type: biochemical
Method: as §2

FDPase [7] = biological target: T4, FDPase (Homo sapiens, UniProt P09467); experiment: Inhibition of liver FDPase by ZMP (IC50); assay type: biochemical; details: Human liver homogenate supernatant
T4 construct: Liver samples (from the indicated species) were homogenized; from tissue; host or cells: human liver homogenate, 45,000 x g supernatant passed over Sephadex G25
Method: as §2

[8] = biological target: T5, fructose diphosphatase ("FDPase") (Oryctolagus cuniculus, UniProt P00637); experiment: Inhibition of fructose-1,6-diphosphatase from rabbit liver; assay type: biochemical
T5 construct: fructose -1,6- diphosphatase from rabbit liver (Sigma); purchased Sigma; host or cells: rabbit liver (enzyme isolated from tissue)
Text: Activity was expressed as a velocity (rate of conversion of substrate).

T4 sequence (P09467 2-338 limits assumed): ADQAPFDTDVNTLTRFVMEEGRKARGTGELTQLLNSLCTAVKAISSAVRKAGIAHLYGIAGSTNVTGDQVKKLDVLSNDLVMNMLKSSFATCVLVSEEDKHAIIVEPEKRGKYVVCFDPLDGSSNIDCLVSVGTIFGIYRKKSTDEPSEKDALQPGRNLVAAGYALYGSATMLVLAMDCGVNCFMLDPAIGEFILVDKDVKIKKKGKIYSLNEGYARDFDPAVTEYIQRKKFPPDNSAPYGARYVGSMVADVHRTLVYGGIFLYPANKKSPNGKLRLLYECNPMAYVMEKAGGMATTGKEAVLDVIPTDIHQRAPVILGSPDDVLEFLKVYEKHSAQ
T1 sequence (P19112 2-363 limits assumed): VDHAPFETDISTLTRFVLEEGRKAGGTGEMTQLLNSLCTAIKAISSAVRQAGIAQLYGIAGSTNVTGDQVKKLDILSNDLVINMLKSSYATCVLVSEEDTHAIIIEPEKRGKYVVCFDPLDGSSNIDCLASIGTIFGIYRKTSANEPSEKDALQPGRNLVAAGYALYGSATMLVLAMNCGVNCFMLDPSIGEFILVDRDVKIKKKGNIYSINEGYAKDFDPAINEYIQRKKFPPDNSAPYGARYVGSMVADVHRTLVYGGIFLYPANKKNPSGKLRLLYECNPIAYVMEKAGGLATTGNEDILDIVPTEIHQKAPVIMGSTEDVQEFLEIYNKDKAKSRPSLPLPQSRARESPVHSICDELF
T3 sequence (P00637 2-338 limits assumed): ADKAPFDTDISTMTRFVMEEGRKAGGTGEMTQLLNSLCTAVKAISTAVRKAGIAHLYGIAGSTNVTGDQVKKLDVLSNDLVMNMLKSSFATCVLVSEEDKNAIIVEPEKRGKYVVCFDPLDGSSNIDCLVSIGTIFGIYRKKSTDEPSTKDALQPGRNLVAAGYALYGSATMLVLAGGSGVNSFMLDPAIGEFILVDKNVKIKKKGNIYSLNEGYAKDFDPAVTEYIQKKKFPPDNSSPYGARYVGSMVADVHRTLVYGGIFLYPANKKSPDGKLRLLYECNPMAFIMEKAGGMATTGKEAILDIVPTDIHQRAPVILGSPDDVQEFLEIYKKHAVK
T5 sequence (P00637 2-338 limits assumed): as above
adenosine kinase, sequence (P55263 whole entry, species assumed): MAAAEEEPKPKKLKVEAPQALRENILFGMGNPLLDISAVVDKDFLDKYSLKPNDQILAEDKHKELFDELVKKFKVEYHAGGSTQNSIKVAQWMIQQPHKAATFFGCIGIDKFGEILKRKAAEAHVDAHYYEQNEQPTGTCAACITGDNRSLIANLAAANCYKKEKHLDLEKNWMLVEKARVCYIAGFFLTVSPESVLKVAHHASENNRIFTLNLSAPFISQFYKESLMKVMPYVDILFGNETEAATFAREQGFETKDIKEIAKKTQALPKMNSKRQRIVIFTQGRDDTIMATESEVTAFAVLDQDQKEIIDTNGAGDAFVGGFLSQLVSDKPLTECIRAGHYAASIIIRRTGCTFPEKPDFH
T2 sequence (Q9QXD6 2-338 limits assumed): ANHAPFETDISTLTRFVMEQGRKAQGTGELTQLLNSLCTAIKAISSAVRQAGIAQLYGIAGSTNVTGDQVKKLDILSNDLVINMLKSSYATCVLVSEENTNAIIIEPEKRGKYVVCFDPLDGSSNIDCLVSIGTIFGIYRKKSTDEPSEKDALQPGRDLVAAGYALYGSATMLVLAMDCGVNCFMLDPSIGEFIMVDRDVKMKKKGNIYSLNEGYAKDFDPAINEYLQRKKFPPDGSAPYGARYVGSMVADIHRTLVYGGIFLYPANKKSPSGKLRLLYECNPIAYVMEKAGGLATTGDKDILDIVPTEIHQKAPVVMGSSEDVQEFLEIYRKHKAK

Compound: NC[C@H]1O[C@@H](n2cnc3c(N)ncnc32)[C@H](O)[C@@H]1O [5'-amino-5'-deoxyadenosine]
adenosine concentrations during net ATP breakdown (ischemic heart tissue): increased adenosine concentrations
activity against HTL-induced seizures (HTL-induced seizures): observed to prevent HTL-induced seizure
activity against PTZ induced seizures (PTZ induced seizures): effective in blocking pentylene-tetrazole (PTZ) induced seizures
adenosine concentrations during net ATP breakdown (cell culture): increased adenosine concentrations
changes in blood pressure or heart rate [1]: did not produce any significant changes in blood pressure or heart rate

Compound: Nc1ncnc2c1c(I)cn2[C@@H]1O[C@H](CO)[C@@H](O)[C@H]1O [5-iodotubercidin]
adenosine concentrations during net ATP breakdown (ischemic heart tissue): increased adenosine concentrations
adenosine concentrations during net ATP breakdown (cell culture): increased adenosine concentrations

F (in vivo): 60%
AUC (in vivo): 4900 ng·h/mL
Cmax (in vivo): 5000 ng/mL
Tmax (in vivo): 0.75 h
Compound: CC(C)C(=O)OC[C@H]1O[C@@H](n2cnc(C(N)=O)c2N)[C@H](O)[C@@H]1O [Compound 10, 5'-isobutyryl-AICA riboside]

F (in vivo): 44%
AUC (in vivo): 3700 ng·h/mL
Cmax (in vivo): 3200 ng/mL
Tmax (in vivo): 1.0 h
Compound: CC(C)(C)C(=O)OC[C@H]1O[C@@H](n2cnc(C(N)=O)c2N)[C@H](O)[C@@H]1O [Compound 11, 5'-pivalyl-AICA riboside]

F (in vivo): 39%
AUC (in vivo): 3200 ng·h/mL
Cmax (in vivo): 2200 ng/mL
Tmax (in vivo): 1.5 h
Compound: CC(=O)OC[C@H]1O[C@@H](n2cnc(C(N)=O)c2N)[C@H](OC(C)=O)[C@@H]1OC(C)=O [Compound C1, 2',3',5'-triacetyl AICA riboside]

Compound: CCNC(=O)[C@H]1O[C@@H](n2cnc3c(N)ncnc32)[C@H](O)[C@@H]1O [N-ethylcarboxamide adenosine]
increases in plasma glucose (hyperglycemia) (plasma glucose): 200-300%

Tissue Concentration AICA Riboside (ischemic heart tissue; ischemic rat heart tissue, equimolar doses): 592 ± 55 nmol/g
ZMP accumulation in the liver relative to AICA riboside ([2]; after an equimolar gavage): 5 times
oral bioavailability as evidenced by ZMP levels in liver, whole blood and heart ([2]; rats, gavage, dose equimolar to AICA riboside): increased oral bioavailability
Compound: CC(C)COC(=O)O[C@H]1[C@@H](O)[C@H](n2cnc(C(N)=O)c2N)O[C@@H]1CO [Prodrug A, 5-amino-3'-(2-methyl-1-propoxycarbonyl)-1-β-D-ribofuranosyl-imidazole-4-carboxamideie]
potency in enhancing adenosine production relative to AICA riboside (ischemic heart tissue; ischemic heart model, molar basis): about 30%
Tissue Concentration Adenosine (ischemic heart tissue; ischemic rat heart tissue, Prodrug A at dose equimolar to AICA riboside): 553 ± 46 nmol/g
activity against HTL-induced seizures (HTL-induced seizures): improved anticonvulsant activity

Compound: O=C[C@H](O)[C@H](O)[C@H](O)CO [Ribose]
dose lowering blood glucose (blood glucose): about 1000 mg/kg

inhibition of adenosine kinase (adenosine kinase): more potent
Compound: NC(=O)c1ncn(C2OC(CSCCC(N)C(=O)O)C(O)C2O)c1N (stereo not shown) [S-AICA riboside homocysteine, S-AICA ribosyl homocysteine]

Compound: NC(=O)c1ncn([C@@H]2O[C@H](COP(=O)(O)O)[C@@H](O)[C@H]2O)c1N [ZMP, AICA riboside-5'-monophosphate]
IC50 (FDPase [3]): 375 µM
IC50 (FDPase [4]): 150 µM
IC50 (FDPase [5]): 41 µM
IC50 (FDPase [6]; Gerbil liver homogenate supernatant): 50 µM
IC50 (FDPase [6]; Guinea Pig liver homogenate supernatant): 12 µM
IC50 (FDPase [7]): 48 µM
Ki [8]: ~40 µM

Compound: Nc1ncnc2c1ncn2[C@@H]1O[C@H](CO)[C@@H](O)[C@H]1O [adenosine, 9-β-D-ribofuranosyladenine]
increases in plasma glucose (hyperglycemia) (plasma glucose): 200-300%

Compound: OC[C@H]1O[C@@H](n2cnc3c(NC4CCCCC4)ncnc32)[C@H](O)[C@@H]1O [cyclohexyladenosine]
increases in plasma glucose (hyperglycemia) (plasma glucose): 200-300%
